Like-named read-outs stand apart in the source and are kept apart here. Where a SMILES comes first, the peptide text is derived from it. The star is where a group is joined. Cbz = O=C(OCc1ccccc1)*; CH2Cl = ClC*
Target: T1, CIB1 and αIIb interaction (CIB1-GST : F-αIIb peptide) (Homo sapiens, UniProt Q99828)
T1 construct: made in house; host or cells: BL-21 plus RIL cells (E. coli)
T1 sequence (Q99828 1-191): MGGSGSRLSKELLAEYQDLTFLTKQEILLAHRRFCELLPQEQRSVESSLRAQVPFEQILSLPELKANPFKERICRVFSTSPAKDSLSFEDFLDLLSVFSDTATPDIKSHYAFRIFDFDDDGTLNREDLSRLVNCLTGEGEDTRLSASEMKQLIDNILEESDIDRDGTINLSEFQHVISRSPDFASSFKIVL
Test: FP assay, 1536-well qHTS format (primary and confirmatory screen)
Format: binding
Details: for Efficacy (%): negative = inhibition; for Curve Class: negative sign = inhibitory curve; for IC50: read-out: IC50

[1] = qHTS primary screen hits, Table S2
[2] = qHTS primary screen hits, Table S2, several classes where COUNT > 1
[3] = qHTS FP screen hits, Table S2, one class per curve where COUNT > 1
[4] = qHTS primary screen of LOPAC/NPACT libraries

SMILES | Efficacy (%) [1] | Curve Class [2] | IC50 [1] | other results
CC(C)=CCC1C(=O)N(c2ccccc2)N(c2ccccc2)C1=O [NCGC00164582-02] | -28% | -2.4 | 50.1 µM | –
Cc1ccc(C)n1-c1ccccc1C(=O)O.O=C(O)C(F)(F)F [NCGC00274054-01] | -40% | -2.4 | 50.1 µM | –
C[N+](C)(C)CC(=O)O.[Cl-] [NCGC00015150-04] | -24% | -2.4 | 56.2 µM | –
CCc1oc2ccccc2c1C(=O)c1cc(Br)c(O)c(Br)c1 [NCGC00013895-18] | – | – | – | Efficacy (%) (qHTS FP screen hits, Table S2): -51%; Curve Class [3]: -2.2; IC50 (qHTS FP screen hits, Table S2): 34.9 µM
C=CC(=O)Nc1cccc(Oc2nc(Nc3ccc(N4CCN(C)CC4)cc3)ncc2Cl)c1 [NCGC00346496-04] | – | – | – | Efficacy (%) [4]: -28%; Curve Class [4]: -2.4; IC50 [4]: 44.7 µM
N#C/C(=C\c1ccc(O)c(O)c1)C(=O)NCCCNC(=O)/C(C#N)=C/c1ccc(O)c(O)c1 [NCGC00016027-04] | – | – | – | Efficacy (%) [4]: -24%; Curve Class [4]: -1.2
COc1cc(NS(=O)(=O)c2cccc([N+](=O)[O-])c2)c2ncccc2c1 [NCGC00161706-01] | -35% | -2.4 | 56.2 µM | –
O.O.O=c1c(O)c(-c2ccc(O)c(O)c2)oc2cc(O)cc(O)c12 [NCGC00015870-27] | -30% | – | – | –
O=C(O)C(F)(F)F.O=C1CCCC2=C1C1(CCCCC1)N=C(Nc1nc3ccccc3o1)N2 [NCGC00186052-01] | -23% | -2.4 | 56.2 µM | –
O=C(O)c1csc(-n2cc(Cc3ccc(CO)cc3)c(-c3cccc(-c4ccccc4)c3)n2)n1 [NCGC00371885-01] | -35% | -2.4 | 44.7 µM | –
Cc1cc(C)nc(NC(=S)N2CCN(c3cccc4ccncc34)CC2)c1.O=C(O)C(F)(F)F [NCGC00244146-01] | -30% | – | 79.4 µM | Curve Class [1]: -2.4
O=C(O)C(F)(F)F.O=C1CC(c2ccccc2Br)c2sc(N3CCOCC3)nc2N1 (centres unmarked) [NCGC00488255-02] | -54% | -2.4 | 79.4 µM | –
O=C(O)c1cc(/N=N/c2ccc(S(=O)(=O)Nc3ccccn3)cc2)ccc1O [NCGC00090903-11] | – | – | – | Efficacy (%) (qHTS FP screen hits, Table S2): -43%; Curve Class [3]: -2.2; IC50 (qHTS FP screen hits, Table S2): 25.1 µM
CC(=O)NC(C)c1cc(Cl)c2cccnc2c1O (centres unmarked) [NCGC00183686-01] | -34% | -2.4 | 44.7 µM | –
CCn1cc(C(=O)O)c(=O)c2ccc(C)nc21 [NCGC00162271-02] | – | – | – | Efficacy (%) [4]: -10%; Curve Class [4]: -1.4; IC50 [4]: 8.9 µM
CC(=O)N1CCN(c2ccc(NC[C@H]3CO[C@](Cn4ccnc4)(c4ccc(Cl)cc4Cl)O3)cc2)CC1 [NCGC00250372-03] | -45% | -2.4 | 44.7 µM | –
O=C(Nc1ccc2ccccc2c1)Nc1nnc(-c2ccccn2)s1.O=C(O)C(F)(F)F [NCGC00188528-01] | -30% | -2.4 | 56.2 µM | –
CN(C)c1cc2c(Nc3ccc4c(cnn4Cc4ccccc4)c3)ncnc2cn1 [NCGC00015468-06] | – | – | – | Efficacy (%) [4]: -28%; Curve Class [4]: -2.4; IC50 [4]: 56.2 µM
C=C1C(=O)O[C@@H]2[C@H]3O[C@]3(C)CC/C=C(/C)CC[C@@H]12 [NCGC00094250-05] | – | – | – | Efficacy (%) [4]: -19%; Curve Class [4]: -1.2; IC50 [4]: 10 µM
O=C(CS)Nc1ccccc1 [NCGC00160366-02] | -44% | – | 89.1 µM | Curve Class [1]: -3
CN1CCN(c2ccc(Nc3c4ccccc4nc4ccccc34)cc2)CC1.O=C(O)C(F)(F)F [NCGC00167823-03] | -25% | -2.4 | 56.2 µM | –
Oc1ccccc1C1Nc2cccc3cccc(c23)N1 [NCGC00026112-04] | -42% | – | 56.2 µM | Curve Class [1]: -2.2
Cc1ccc(-c2c(C(=O)CCl)n(CCCO)c3ncnc(N)c23)cc1 [NCGC00485901-01] | – | – | – | Efficacy (%) [4]: -25%; Curve Class [4]: -1.4; IC50 [4]: 3.5 µM
O=C(Nc1nc(-c2ccccc2)cs1)c1ccncc1NS(=O)(=O)c1ccc(F)c(F)c1.O=C(O)C(F)(F)F [NCGC00344933-01] | -34% | -3 | 79.4 µM | –
Nc1nc2[nH]cnc2c(=S)[nH]1 [NCGC00263442-01] | -56% | – | 79.4 µM | Curve Class [1]: -3

SMILES | Efficacy (%) [1] | Curve Class [2] | IC50 [1] | other results
CCC(C)(C)C(=O)O[C@H]1C[C@@H](C)C=C2C=C[C@H](C)[C@H](CC[C@@H]3C[C@@H](O)CC(=O)O3)[C@H]21 [NCGC00017324-07] | -17% | -2.4 | – | –
O=C(O)C(F)(F)F.O=C1CCCC2=C1C(c1n[nH]cc1Cl)NC(Nc1nc3ccccc3o1)=N2 (centres unmarked) [NCGC00242659-02] | -31% | -2.4 | 31.6 µM | –
C[C@H](O)C(=O)C1=Nc2c(nc(N)[nH]c2=O)NC1 [NCGC00094391-03] | -40% | – | 35.5 µM | Curve Class [1]: -2.2
CC(C)C[C@H](NC(=O)CNC(=O)OCc1ccccc1)C(=O)N[C@@H](Cc1ccccc1)C(=O)CCl [NCGC00485375-01] (Cbz-Gly-Leu-Phe-CH2Cl) | – | – | – | Efficacy (%) [4]: -24%; Curve Class [4]: -2.4; IC50 [4]: 22.4 µM
O=S1(=O)N=C(Oc2ccccc2)c2ccccc21 [NCGC00079022-02] | -23% | -2.4 | 79.4 µM | –
NC1(C(=O)O)CCc2cc(C(=O)O)ccc21 (centres unmarked) [NCGC00015024-06] | – | – | – | Efficacy (%) [4]: -25%; Curve Class [4]: -2.2; IC50 [4]: 56.2 µM
COc1ccc2c(c1)C(=O)N(CCc1ccc(S(=O)(=O)NC(=O)NC3CCCCC3)cc1)C(=O)C2(C)C [NCGC00016819-06] | – | – | – | Efficacy (%) [4]: -31%; Curve Class [4]: -2.4; IC50 [4]: 44.7 µM
CC(=O)Nc1sc2c(c1-c1nc3ccccc3s1)CCN(C(C)C)C2 [NCGC00183664-03] | -54% | -2.2 | 50.1 µM | –
CN(N=O)c1ccc(O)c(O)c1 [NCGC00015706-04] | -66% | -2.4 | 56.2 µM | –
CC(C)N(CCC(=O)c1ccc2ccccc2c1)Cc1ccccc1.Cl [NCGC00016107-09] | – | – | – | Efficacy (%) [4]: -65%; Curve Class [4]: -1.2; IC50 [4]: 28.2 µM
CCC(=O)NC(c1cccs1)c1ccc2cccnc2c1O (centres unmarked) [NCGC00182903-03] | -26% | – | 50.1 µM | Curve Class [1]: -2.4
CC(C)(C)CNc1ncnc2ccc(-c3ccc(CO)o3)cc12.O=C(O)C(F)(F)F [NCGC00238375-01] | -42% | -2.2 | 50.1 µM | –
Cc1cc(Cn2cnc3c2C[C@@H](C(=O)O)N(C(=O)C(c2ccccc2)c2ccccc2)C3)ccc1N [NCGC00162092-02] | – | – | – | Efficacy (%) [4]: -10%; Curve Class [4]: -1.4; IC50 [4]: 10 µM
CCCc1c(O)c(O)c(C(=O)O)c2cc(Cc3ccccc3)c(C)cc12 [NCGC00249596-02] | -48% | -2.2 | 44.7 µM | –
CN(Cc1cnc2nc(N)nc(N)c2n1)c1ccc(C(=O)N[C@@H](CCC(=O)O)C(=O)O)cc1 [NCGC00260705-01] | -58% | – | 44.7 µM | Curve Class [1]: -2.2
O=C(O)/C=C/c1ccc(-c2ccc(O)c(C34CC5CC(CC(C5)C3)C4)c2)cc1 [NCGC00485908-01] | – | – | – | Efficacy (%) [4]: -26%; Curve Class [4]: -2.4; IC50 [4]: 44.7 µM
Nc1ccc2nc3c(=O)n(CCc4ccccc4)c(=O)[nH]c3nc2c1.O=C(O)C(F)(F)F [NCGC00356558-01] | -62% | -1.2 | 5 µM | –
CN(N=O)c1cc(O)ccc1O [NCGC00015372-04] | -50% | – | 50.1 µM | Curve Class [1]: -2.2
CCc1c(-c2ccccc2)c(-c2ccccc2)nn1-c1ccccc1-c1cccc(OCC(=O)O)c1 [NCGC00387254-02] | -30% | – | 56.2 µM | Curve Class (qHTS primary screen hits, Table S2, NPACT library): -2.4
CN(C)c1ccc(C(=C2C=CC(=[N+](C)C)C=C2)c2ccc(N(C)C)cc2)cc1.[Cl-] [NCGC00091112-09] | -60% | – | 56.2 µM | Curve Class [1]: -2.4
O=C1Nc2ccccc2/C1=C1/Nc2ccccc2/C1=N\O [NCGC00015545-07] | – | – | – | Efficacy (%) [4]: -18%; Curve Class [4]: -1.2; IC50 [4]: 3.5 µM
Cl.Nc1ccc2cc3ccc(N)cc3nc2c1.Nc1ccc2cc3ccc(N)cc3nc2c1.O=S(=O)(O)O [NCGC00166245-04] | -130% | -1.1 | 2.2 µM | –
O=C(Nc1nc(-c2ccccc2)cs1)c1ccncc1NS(=O)(=O)c1ccc(F)cc1Cl.O=C(O)C(F)(F)F [NCGC00345105-01] | -42% | -2.2 | 79.4 µM | –
O=C(Nc1nc(-c2ccccc2)cs1)c1ccncc1NS(=O)(=O)c1ccccc1.O=C(O)C(F)(F)F [NCGC00344903-01] | -44% | -2.2 | 44.7 µM | –
Cc1ccc(CNc2ncnc3ccc(-c4ccc(CO)o4)cc23)o1.O=C(O)C(F)(F)F [NCGC00188654-01] | -45% | – | 50.1 µM | Curve Class [1]: -2.2

From paper PMC11249646, “Small-Molecule Disruptors of the Interaction between Calcium- and Integrin-Binding Protein 1 and Integrin αIIbβ3 as Novel Antiplatelet Agents” (ACS Pharmacology & Translational Science, 2024)
